Experimental data published in BindingDB's records for doi:10.1021/acs.jmedchem.6b00788 (University of Pittsburgh, 2017).

Assay: Inhibition of TNFalpha-PLAP (unknown origin)

IC50 | SMILES
36 nM | COc1cc(O)c2c(c1)/C=C/C[C@H](O)[C@H](O)C(=O)/C(F)=C\C[C@H](C)OC2=O
> 10000 nM | COc1cc(O)c2c(c1)/C=C/C[C@H](O)[C@H](O)C(=O)/C=C(/C)C[C@H](C)OC2=O
